From ChEMBL document CHEMBL1177684, “Synthesis, molecular modeling, and biological evaluation of cinnamic acid metronidazole ester derivatives as novel anticancer agents” (Bioorg Med Chem, 2010)
pIC50: −log10 of the molar value.

What was measured:
[1] = system: MCF7; assay: Antiproliferative activity against human MCF7 cells after 48 hrs by MTT assay; details: MCF7, 48 h
[2] = biological target: Epidermal growth factor receptor (Homo sapiens, UniProt P00533)
Description: Inhibition of human recombinant His6x-tagged EGFR autophosphorylation expressed in Sf9 cells after 1 hr by ELISA

[3] = biological target: Receptor tyrosine-protein kinase erbB-2 (Homo sapiens, UniProt P04626)
Receptor tyrosine-protein kinase erbB-2, sequence (P04626 whole entry): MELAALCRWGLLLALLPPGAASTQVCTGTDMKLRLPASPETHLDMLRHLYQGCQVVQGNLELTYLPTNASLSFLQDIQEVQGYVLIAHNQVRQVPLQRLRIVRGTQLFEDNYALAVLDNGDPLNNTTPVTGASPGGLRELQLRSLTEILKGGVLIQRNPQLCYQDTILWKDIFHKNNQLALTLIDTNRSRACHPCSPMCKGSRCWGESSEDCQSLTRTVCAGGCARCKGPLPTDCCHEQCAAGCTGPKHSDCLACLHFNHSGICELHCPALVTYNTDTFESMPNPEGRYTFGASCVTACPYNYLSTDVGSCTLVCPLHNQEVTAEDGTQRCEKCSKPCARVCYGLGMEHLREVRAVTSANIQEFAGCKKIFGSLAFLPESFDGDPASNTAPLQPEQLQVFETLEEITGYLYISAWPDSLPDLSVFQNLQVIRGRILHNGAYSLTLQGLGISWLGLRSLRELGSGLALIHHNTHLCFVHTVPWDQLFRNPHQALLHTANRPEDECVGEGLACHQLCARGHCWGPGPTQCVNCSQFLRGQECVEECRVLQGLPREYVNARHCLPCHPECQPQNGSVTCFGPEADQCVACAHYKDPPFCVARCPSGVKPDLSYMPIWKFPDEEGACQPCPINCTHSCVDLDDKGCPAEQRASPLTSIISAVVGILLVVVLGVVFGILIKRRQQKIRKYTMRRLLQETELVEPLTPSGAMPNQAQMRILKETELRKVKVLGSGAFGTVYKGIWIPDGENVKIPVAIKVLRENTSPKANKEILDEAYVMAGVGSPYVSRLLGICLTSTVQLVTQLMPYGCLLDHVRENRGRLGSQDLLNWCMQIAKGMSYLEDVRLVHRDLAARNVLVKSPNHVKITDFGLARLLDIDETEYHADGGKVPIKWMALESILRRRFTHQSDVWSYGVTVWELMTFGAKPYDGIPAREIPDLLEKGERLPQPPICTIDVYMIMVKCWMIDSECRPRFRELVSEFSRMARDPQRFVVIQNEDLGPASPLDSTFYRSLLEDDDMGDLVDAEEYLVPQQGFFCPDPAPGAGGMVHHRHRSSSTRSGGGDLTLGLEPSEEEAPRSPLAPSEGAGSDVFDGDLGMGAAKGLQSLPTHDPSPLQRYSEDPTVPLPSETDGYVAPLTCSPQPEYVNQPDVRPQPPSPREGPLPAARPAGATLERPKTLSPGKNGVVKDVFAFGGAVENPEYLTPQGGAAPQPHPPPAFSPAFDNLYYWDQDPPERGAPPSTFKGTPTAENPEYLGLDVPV
Description: Inhibition of human recombinant His6x-tagged HER2 autophosphorylation expressed in Sf9 cells after 1 hr by ELISA

Epidermal growth factor receptor, sequence (P00533 whole entry): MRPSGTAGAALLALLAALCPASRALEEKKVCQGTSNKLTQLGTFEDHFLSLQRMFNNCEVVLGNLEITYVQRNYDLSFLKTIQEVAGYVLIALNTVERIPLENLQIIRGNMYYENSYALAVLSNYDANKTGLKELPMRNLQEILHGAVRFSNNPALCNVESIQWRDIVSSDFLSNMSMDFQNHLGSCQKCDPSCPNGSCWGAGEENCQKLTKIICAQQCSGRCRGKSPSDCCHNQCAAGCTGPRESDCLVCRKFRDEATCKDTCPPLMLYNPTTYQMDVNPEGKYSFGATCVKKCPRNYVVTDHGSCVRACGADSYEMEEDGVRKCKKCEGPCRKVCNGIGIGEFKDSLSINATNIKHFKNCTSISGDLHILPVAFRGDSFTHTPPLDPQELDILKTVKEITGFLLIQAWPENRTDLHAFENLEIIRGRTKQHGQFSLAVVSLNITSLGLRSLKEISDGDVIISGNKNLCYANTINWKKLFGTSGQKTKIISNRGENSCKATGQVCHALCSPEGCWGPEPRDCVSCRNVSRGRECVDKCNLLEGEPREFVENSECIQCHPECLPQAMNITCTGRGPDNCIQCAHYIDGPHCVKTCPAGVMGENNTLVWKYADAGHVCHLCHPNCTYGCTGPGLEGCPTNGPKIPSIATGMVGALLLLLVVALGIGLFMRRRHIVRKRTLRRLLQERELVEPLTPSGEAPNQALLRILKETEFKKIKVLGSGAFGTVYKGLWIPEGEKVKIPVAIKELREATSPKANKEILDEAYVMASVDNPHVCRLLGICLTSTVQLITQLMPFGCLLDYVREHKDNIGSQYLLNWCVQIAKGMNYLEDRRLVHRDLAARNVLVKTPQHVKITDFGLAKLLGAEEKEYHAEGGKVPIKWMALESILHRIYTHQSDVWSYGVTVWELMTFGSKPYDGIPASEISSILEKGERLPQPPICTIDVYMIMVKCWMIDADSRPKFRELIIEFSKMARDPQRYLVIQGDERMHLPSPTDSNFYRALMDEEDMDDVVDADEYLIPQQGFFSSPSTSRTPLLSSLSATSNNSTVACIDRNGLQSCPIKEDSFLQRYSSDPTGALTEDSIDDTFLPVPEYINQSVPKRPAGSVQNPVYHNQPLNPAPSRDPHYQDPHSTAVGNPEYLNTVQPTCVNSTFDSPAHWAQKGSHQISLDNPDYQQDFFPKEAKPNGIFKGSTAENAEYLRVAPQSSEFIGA

pIC50 [1]	pIC50 [2]	pIC50 [3]	SMILES
5.36	5.11	4.97	Cc1ncc([N+](=O)[O-])n1CCOC(=O)/C=C/c1ccccc1
4.77	4.60	4.40	Cc1ncc([N+](=O)[O-])n1CCOC(=O)/C=C/c1ccccc1[N+](=O)[O-]
5.52	5.44	5.32	Cc1ncc([N+](=O)[O-])n1CCOC(=O)/C=C/c1ccc(Cl)cc1
5.30	5.17	5.00	Cc1ncc([N+](=O)[O-])n1CCOC(=O)/C=C/c1ccc(C(C)C)cc1
5.23	4.91	4.78	Cc1ncc([N+](=O)[O-])n1CCOC(=O)/C=C/c1cccc(F)c1
4.70	4.49	< 4.30	COc1ccccc1/C=C/C(=O)OCCn1c([N+](=O)[O-])cnc1C
5.39	5.24	5.03	Cc1ncc([N+](=O)[O-])n1CCOC(=O)/C=C/c1ccc2ccccc2c1
5.26	4.96	4.84	COc1ccc(/C=C/C(=O)OCCn2c([N+](=O)[O-])cnc2C)cc1
4.80	4.61	4.35	Cc1ncc([N+](=O)[O-])n1CCOC(=O)/C=C/c1ccccc1Br
5.42	5.39	5.23	Cc1ncc([N+](=O)[O-])n1CCOC(=O)/C=C/c1ccc(F)cc1
5.37	5.09	5.02	Cc1ccc(/C=C/C(=O)OCCn2c([N+](=O)[O-])cnc2C)cc1
5.25	4.84	4.71	Cc1ncc([N+](=O)[O-])n1CCOC(=O)/C=C/c1cccc([N+](=O)[O-])c1
4.82	4.57	4.38	Cc1ncc([N+](=O)[O-])n1CCOC(=O)/C=C/c1ccccc1F
5.61	5.49	5.33	Cc1ncc([N+](=O)[O-])n1CCOC(=O)/C=C/c1ccc(Br)cc1
5.47	5.41	5.30	Cc1ncc([N+](=O)[O-])n1CCOC(=O)/C=C/c1cccc2ccccc12
–	–	5.46	Cc1ncc([N+](=O)[O-])n1CCOC(=O)/C=C/c1ccc(OCc2ccccc2)cc1
4.74	4.68	4.44	Cc1ncc([N+](=O)[O-])n1CCOC(=O)/C=C/c1ccccc1Cl
5.24	4.86	4.73	COc1cccc(/C=C/C(=O)OCCn2c([N+](=O)[O-])cnc2C)c1
6.44	6.21	5.67	Cc1ncc([N+](=O)[O-])n1CCOC(=O)/C=C/c1ccc(-c2ccccc2)cc1
